The subject of one data set is DNA synthesis. The following applies: in words; cited from earlier work.
Data set [1] is described as follows: Half-life of nitric oxide generators at pH 7.4 and 37° C. (Table 1).
In data set [2] the test system is Francisella tularensis. The data set is classed as in vivo, mice.
Data set [3] concerns Leishmania major. The data set is described as follows: microbe, parasite or virus in culture. Format: cell-based. The following applies: read-out: IC50 (growth inhibition).
The test system of data set [4] is P. falciparum clone CDC/Indochina III (W2). The data set is described as follows: Anti-malaria in vitro screen, P. falciparum clone W2. The following applies: Plasmodium falciparum.
In data set [5] the test system is P. falciparum clone CDC/Sierra Leone I (D6). The data set is described as follows: Anti-malaria in vitro screen, P. falciparum clone D6. The following applies: Plasmodium falciparum.
The subject of data set [6] is Francisella tularensis. The data set is described as follows: microbe, parasite or virus in culture. Format: cell-based. The following applies: read-out: IC50 (growth inhibition).
For a further data set, the system named is macrophages. The data set is described as follows: NO2^- / NO release by macrophages after exposure to liposome-encapsulated or non-encapsulated NONOates (Table 8). The following applies: non-encapsulated; 50 μM, 1 hr incubation, culture medium after 24 hrs.
Another data set deals with Candida albicans. The data set is described as follows: microbe, parasite or virus in culture. The following applies: read-out: IC50 (growth inhibition). The data set is classed as cell-based.
The test system of data set [7] is Leishmania major. The data set is described as follows: Blocking Leishmania major growth in vitro compared with glucantime. The data set is classed as cell-based. The following applies: equivalent molar concentrations of NONOates and glucantime.
Data set [8] in a line: Stability of nitric oxide generators in PBS at room temperature, absorbance (Table 5). The following applies: for Initial Abs. / 24-hour Abs.: PBS, at peak wavelength; for Initial Abs.: immediately; for 24-hour Abs.: room temperature; for degraded at 24 h: pbs.
In another data set the test system is Plasmodium falciparum. The data set is described as follows: Anti-malaria in vitro screen, overall result. The following applies: in words.
Another data set can be described thus: physchem. The following applies: pH 7.4.
For data set [9] the following is noted: pH 7.4.
The conditions of data set [10]: in words; cited from earlier work.
The subject of the next data set is tumor cells. The following applies: tumor cells in vitro; in words; cited from earlier work.
Data set [11] has as its system Mycobacterium tuberculosis. The following applies: direct delivery; in words; cited from earlier work.
Setting [12] is: pH 7.4, 37° C., result in words.
[13] abbreviates: experiment #1, IP 200 μM two days after inoculation.

The values below come from US5814666A, “Encapsulated and non-encapsulated nitric oxide generators used as antimicrobial agents” (The United States as represented by the Department of …, priority 1995, dated 1998).

One may read the IC50 as the point on the concentration scale where inhibition reaches its midpoint. As a reminder, the IC90 is the concentration at which the effect reaches the 90% level.

Converted amounts (≈) assume the structure as drawn. Structures can show the parent of a compound that is named as a salt. Where two headings read alike, the source gives them in different places.

In the case of `CC(=O)N[C@H](C(=O)O)C(C)(C)SN=O` (racemic) [S-nitroso-N-acetylpenicillamine], the “inhibition of DNA synthesis” value in the data set on DNA synthesis was “effective at inhibiting DNA synthesis”.

Consider `C=CCON=[N+]([O-])N(CC)CC` [A-DEA/NO], for which the Half-life result in data set [1] (setting [12]) is listed as “stable”.

As for `C=CCON=[N+]([O-])NC(C)C` [A-IPA/NO], in [1] (setting [12]), the Half-life result was “stable”.

Consider `CCN(CC)[N+]([O-])=NOCCBr` [BE-DEA/NO], for which the Half-life result in [1] (setting [12]) is “stable”.

Take `CCOC(=O)CON=[N+]([O-])NC(C)C` [CEM-IPA/NO]: the Half-life result in data set [1] (setting [12]) is given as “stable”.

For the compound `CCN(CC)[N+]([O-])=NO` [DEA/NO, diethylamine-bis(nitric oxide) adduct sodium salt], in the data set on Francisella tularensis [2] (setting [13]), the “#Dead/Total” value is 5/5 and the “% Protected” value is 0%. This compound also had a Half-life in data set [1] (pH 7.4) of 2 min.

For the compound `NCCN(CCN)[N+]([O-])=NO` [DETA/NO], the IC50 in the data set on Leishmania major [3] is below 10000 µM; in data set [4], 0.037 µg/mL (≈ 0.227 µM); in data set [5], 4.83 µg/mL (≈ 29.6 µM); in the data set on Francisella tularensis [6], below 100 µM; in the data set on Candida albicans, below 100 µM. The IC90 in [4] worked out at 0.094 µg/mL (≈ 0.576 µM); in data set [5], 10.1 µg/mL (≈ 62 µM). For the same compound, the “NO2 --(nmol/ml)” value with macrophages turned out to be 0 nmol/mL. The “times more effective than glucantime at blocking Leishmania major growth” value (shortened to “times more effective than glucantime”) in the data set with Leishmania major [7] is 7.2 times.

Consider `CCON=[N+]([O-])N(CC)CC` [E-DEA/NO], for which the Half-life entry in data set [1] (setting [12]) is “stable”.

Take `CCN(CC)[N+]([O-])=NOCCO` [HE-DEA/NO]: the Half-life entry in data set [1] (setting [12]) is “stable”.

Turning to `CCN(CC)[N+]([O-])=NOCC(C)O` (stereo not drawn) [HP-DEA/NO], in data set [1] (setting [12]), the Half-life result is given as “stable”.

For the compound `CCN(CC)[N+]([O-])=NOC` [M-DEA/NO], in [8], the “Initial Abs.” value turned out to be 3.454, the “24-hour Abs.” value is 3.020 and the degraded at 24 h amounted to 14%. For the same compound, the Half-life result in [1] (setting [12]) is listed as “stable”.

On to `CON=[N+]([O-])NC(C)C` [M-IPA/NO], for which, in data set [1] (setting [12]), the Half-life result is on record as “stable”.

Consider `CCN(CC)[N+]([O-])=NOCOC` [MOM-DEA/NO], for which the “#Dead/Total” value in the data set with Francisella tularensis [2] (setting [13]) is 1/5; in the data set with Francisella tularensis [2] (experiment #2, IP 200 μM two days after inoculation) it was 1/5. Besides, the “% Protected” value in the data set on Francisella tularensis [2] (setting [13]) was found to be 80%; in the data set with Francisella tularensis [2] (experiment #2, IP 200 μM, control 40% protected), 80%. In the data set on Francisella tularensis [2] (two subsequent experiments, in words), the anti-microbial effects result was “not found to be significant in two subsequent experiments”. In data set [1] (pH 7.4), the Half-life was 7200 min.

For `COCON=[N+]([O-])NC(C)C` [MOM-IPA/NO], in data set [8], the “Initial Abs.” value is reported as 3.530, the “24-hour Abs.” value is 3.340 and the degraded at 24 h came out at 5%. Besides, the Half-life entry in data set [1] (setting [12]) is recorded as “stable”.

`[Na+].[Na+].[O-][N+]([O-])=NO` [OXI/NO, sodium trioxodinitrate(II) monohydrate] showed a Half-life in data set [1] (pH 7.4, 37° C.) of 2 min.

For the compound `CCCON=[N+]([O-])N(CC)CC` [P-DEA/NO], in data set [1] (setting [12]), the Half-life result is listed as “stable”.

In [1] (pH 7.4), `CCN(CC)[N+]([O-])=NOS(=O)(=O)N(C)C` [S-DEA/NO] gave a Half-life of 30 min.

On to `NCCCNCCCCN(CCCN)[N+]([O-])=NO` [SPER/NO, spermine-bis(nitric oxide) adduct monohydrate], for which the IC50 with Leishmania major [3] is below 100 µM; in data set [4], 5.65 µg/mL; in data set [5], 5.31 µg/mL; in the data set on Francisella tularensis [6] it was below 10 µM; with Candida albicans it was below 100 µM. Besides, the IC90 in [4] was determined as 10 µg/mL; in [5], 9.53 µg/mL. Also, the anti-malarial effectiveness entry with Plasmodium falciparum is listed as “effective”. The same compound registered a Half-life in the data set “physchem” of 39 min. The “NO2 --(nmol/ml)” value with macrophages stood at 1 ± 1 nmol/mL. In the data set on Leishmania major [7], the “times more effective than glucantime” value came out at 6.7 times.

Compound `N.N.O=S(=O)(O)[N+]([O-])=NO` [SULFI/NO] registered a Half-life in data set [9] of 7 min.

Turning to `C=CON=[N+]([O-])N(CC)CC` [V-DEA/NO], in [1] (setting [12]), the Half-life result is recorded as “stable”.

As for `CCN(CC)[N+]([O-])=NOCOC(C)=O` [acetoxy-DEA/NO], in data set [4], half-maximal inhibition (IC50) required 17.7 µg/mL (≈ 86.5 µM) and the 90% effect level (IC90) was put at 19.2 µg/mL (≈ 93.4 µM). Further, in data set [5], half-maximal inhibition (IC50) was put at 0.267 µg/mL (≈ 1.3 µM) and the 90% effect level (IC90) was put at 0.295 µg/mL (≈ 1.44 µM). Further, the anti-malarial effectiveness result with Plasmodium falciparum is recorded as “effective”. Further, in the data set with Leishmania major [7], the “times more effective than glucantime” value is recorded as 8.9 times. For the same compound, in the data set with Francisella tularensis [2] (setting [13]), the “#Dead/Total” value is given as 2/4 and the “% Protected” value was 50%. Also, the Half-life entry in data set [1] (setting [12]) is recorded as “stable”.

`O=[N+]([O-])OCC(CO[N+](=O)[O-])O[N+](=O)[O-]` [glyceryl trinitrate]: the tolerance / toxicity entry in data set [10] is “development of tolerance”.

Take nitric oxide: the “inhibition of DNA synthesis and mitochondrial respiration” value in the data set on tumor cells was “inhibit DNA synthesis and mitochondrial respiration of tumor cells in vitro”. Besides, the “killing of intracellular pathogens” value in data set [11] is given as “kills intracellular pathogens such as Mycobacterium tuberculosis”.
